According to patent US20170128592A1, “TARGETED POLYMERIC NANO-COMPLEXES AS DRUG DELIVERY SYSTEM” (Indian Institute of Technology, Bombay, priority 2015, published 2017):

Experiments:
Type in all cases: cell-based, human
Huh7 cells [1] = test: Annexin V/PI apoptosis assay by flow cytometry; details: IC50 concentrations, 48 hr
Method: Annexin V and Propidium iodide (PI) staining detection kit was used to quantify apoptotic cells. […] A combination of Cet-PLGA-b-PEG-CA4 NP Cet-PLEA-b-PEG-2ME NP (15 nM+5 μM) was also evaluated. Untreated and bare PLGA-b-PEG NP treated cells served as the negative controls. Cells were washed twice with PBS and resuspended in 400 μL of 1× binding buffer. Then, 5 μL of Annexin V-FITC and PI solution were added to the test samples, incubated for 15 min in dark at room temperature, and analyzed using flow cytometer BD FACS ARIA special order system equipped with the BD FACSDiva. (Becton and Dickinson, USA) software program. The fluorescence of 20,000 cells were gated and counted for each sample.

[2] = system: pEGFR expression in Huh7 cells; test: Immunofluorescence (CLSM) of pEGFR expression; details: 48 hr
Method: (§1) To evaluate the effect of nanocomplexes on EGFR and tubulin interactions, Huh7 cells (5×10^4 cells/well) in 24 well plates were treated with 15 nM of CA4, PLGA-b-PEG-CA4 NP, Cet-PLGA-b-PEG-CA4 NP, 5 μM of 2 ME, PLGA-b-PEG-2 ME NP, Cet-PLGA-b-PEG-2 ME NP and combinatorial Cet-PLEA-b-PEG-CA4 NP+Cet-PLGA-b-PEG-2 ME NP (15 nM+5 μM) for 48 hr. Untreated and bare PLGA-b-PEG NP treated cells served as the negative controls. Cells were then fixed with 3.7% formaldehyde at 37° C. for 30 min and immunostained with primary antibodies anti-EGFR, anti-pEGFR XP rabbit monoclonal antibodies (Cell Signaling Technology Inc., USA), anti-α-Tubulin mouse monoclonal antibody (Signa Aldrich, USA) and anti-pHistone H3 rabbit polyclonal antibody (Ser-10, Santa Cruz Biotechnology, USA) followed by incubation with secondary antibody FITC-conjugated anti-mouse IgG or FITC-conjugated anti-rabbit IgG (Sigma Aldrich, USA) or anti-mouse IgG-Alexa 568 conjugate (Invitrogen, USA). Hoechst 33258 was used for DNA counterstaining and cells were examined under CLSM.

[3] = system: pHistone H3 in Huh7 cells; test: Immunofluorescence of Histone H3 phosphorylation (Serine 10); details: 48 hr
Method: as §1

Huh7 cells [4] = test: SRB cytotoxicity assay; details: Huh7, 48 hr incubation, mean ± SD of three experiments
Method: For cytotoxicity measurements, Hep G2 and Huh7 cells were incubated in 96-well plates (Nunc, USA) at 5×10^4 cells/well density and then treated with bare PLGA-b-PEG NP, Cet-PLEA-b-PEG NP (50-250 μg/mL), free drug CA4, its nano-complexes ([…]) and free drug 2 ME, its nano-complexes (1-15 μM) for 48 hr. […] The standard SRB assay was used to measure the cell viabilities. The absorbance was measured with a 96-well fluorescence plate reader (SPECTRAmax M2, Molecular Devices, USA) equipped with the SOFTmax Pro software (Molecular Devices), at a 550 nun wavelength. IC50 values of the free drugs and all the nanocomplexes were evaluated using OriginPro 8.0 software.

Row | Compound | induction of apoptosis (Huh7 cells [1]) [%] | effect on pEGFR expression by CLSM ([2]; 5 μM) | pHistone H3 positive cells ([3]; 5 μM) [%] | IC50 (Huh7 cells [4]) [nM] | effect on pEGFR expression by CLSM ([2]; 15 nM) | pHistone H3 positive cells ([3]; 15 nM) [%]
1 | COc1cc2c(cc1O)CC[C@@H]1[C@@H]2CC[C@]2(C)[C@@H](O)CC[C@@H]12 [2 ME, 2-methoxyestradiol] | 2.6 | moderately affected | 2±0.7 | 3500 | – | –
2 | COc1ccc(/C=C\c2cc(OC)c(OC)c(OC)c2)cc1O [CA4, combretastatin A4] | 11.5 | – | – | 14.9 | moderately affected | 4±0.3
